One assay relates to Nicotiana tabacum plants. Conditions: plants homozygous for both mutations versus plants homozygous for each single mutation; cited from earlier work.
In assay [1] the test system is wheat plants (Triticum aestivum L. cv CDC Teal and mutant lines). Briefly: Whole-plant reaction to imazamox spray (resistant / intermediate / susceptible rating). Type of assay: in vivo. The text has this:
Approximately 40,000 seeds of Triticum aestivum L. cv CDC Teal (Hughes and Hucl, 1993 Can. J. Plant Sci. 73:193-197) were mutagenized using modified procedures described by Washington and Sears (1970). Seeds were pre-soaked in distilled water for four hours, followed by treatment with 0.3% EMS for six hours. Seeds were rinsed continually with tap water for seven hours and allowed to dry for approximately four hours before being planted in the field. The M1 plants were selfed and the seed was harvested in bulk. Approximately 2×10^6 M2 plants were grown in the field the following year and were sprayed at the two leaf stage with imazamox at a rate of 40 g ai ha^−1 in a spray volume of 100 L ha^−1. Merge 0.05% (v/v) adjuvant was added to the spray solution. Six lines resistant to imazamox were selected and designated as lines 1A, 9A, 10A, 11A, 15A, and 16A. The M3 and M4 generations were grown in a walk-in growth chamber and plants resistant to imazamox were selected using rates of 20 g ai ha^−1. Resistant plants were selected in the M5 generation after application of 40 g ai ha^−1 in the field. M5 seed was homozygous for the trait, as progeny testing detected no segregation for resistance to imazamox.
To determine the genetic control of resistance to imazamox in the six wheat lines, reciprocal crosses between the six homozygous resistant M6 lines and CDC Teal (susceptible to imazamox) were made. Randomly selected F1 plants from each of the crosses were backcrossed to CDC Teal to form backcross (BC)F1 populations. To investigate allelism, all possible inter-crosses between the six mutants and SWP965001 (Grandin/3*Fidel—FS-4) were made. SWP965001 is a spring wheat line that is homozygous for the FS-4 allele. Parental genotypes were grown in a walk-in growth chamber with a 16 hour photoperiod and a 24° C. day and 16° C. night temperature regime. Spikes that were ¾ emerged from the boot were emasculated and then pollinated 2-3 days after the emasculation date. Randomly selected F2 plants from all segregating crosses were selfed to produce F2:3 families. Parental, F1, BCF1, F2 plants and F2:3 families were tested for reaction to imazamox. All experiments were conducted in a walk-in growth chamber with a 16 hour photoperiod and a 23° C. day and 16° C. night temperature regime. A completely random design was used for all experiments. In experiments involving F2:3 families, effort was taken to randomize both within and among families. The F1 and F2 populations were screened in the same experiment along with parental genotypes and CDC Teal as controls. Both the BCF1 and F2:3 populations were screened in two separate experiments along with appropriate parental genotypes as controls.
Herbicide treatments were applied to plants growing in 8×16 cell flats at the two leaf stage using a traveling cable sprayer calibrated to spray 100 L ha^−1. Imazamox was applied to plants at a rate of 20 g ai ha^−1 using an 8001 EVS nozzle at a pressure of 275 kPa. Merge surfactant (0.05% v/v) was added to the herbicide solution prior to application. Fifteen days after herbicide application, plants were rated based on parental reactions and were considered as resistant, intermediate, or susceptible. […] For Mendelian analysis of the segregating populations, plants were scored into resistant and susceptible categories and tested for goodness of fit to various 1 gene, 2 gene and 3 gene models using chi-square analysis. […]

In assay [2] the test system is wheat genotypes (BW755, Teal15A, 15A/11A). Nature of the assay: Injury of wheat genotypes treated with 10× or 30× rate of imazamox. It counts as in vivo, Triticum aestivum. The text has this: FIG. 7 is a table comparing injury sustained by three wheat genotypes when treated with either a 10× or 30× rate of imazamox. The 1× rate is 20 g/ha. BW755 contains the FS4 mutant gene. 15A/11A is a bulk of selfed progeny from the cross of Teal11A and Teal15A. The population was not yet homozygous at all three non-allelic loci.
The presence of two IMI nucleic acids in Teal 15A provides increased tolerance to imidazolinone herbicides compared to a line such as BW755 carrying only one IMI nucleic acid. This increased tolerance is reflected both in less injury at higher herbicide rates, but in having more uninhibited AHAS enzyme activity.
Combining three non-allelic genes each conferring tolerance to imidazolinone herbicides results in greater tolerance than with only two non-allelic genes (FIG. 7).

Structures are written as SMILES.

With `COc1nc(C)nc(NC(=O)NS(=O)(=O)c2ccccc2Cl)n1` [chlorsulfuron], the “resistance to foliar applications relative to single mutation plants” value in the assay with Nicotiana tabacum plants is “five-fold more resistant”.

Consider `COCc1cnc(C2=NC(C)(C(C)C)C(=O)N2)c(C(=O)O)c1` (stereo not shown) [imazamox], for which the reaction to imazamox result in assay [1] (CDC Teal (wild type parent)) is given as “susceptible”; in assay [1] (F1 plants of resistant lines crossed with CDC Teal, except 15A×Teal, 20 g ai ha^−1), “intermediate reaction”; in assay [1] (fourteen F1 plants from 15A×Teal cross, 20 g ai ha^−1) it was “resistant”; in assay [1] (selected lines 1A, 9A, 10A, 11A, 15A, 16A, M2 plants in field, two leaf stage, 40 g ai ha^−1), “resistant”. Further, the “survival after application of imazamox” value in assay [1] (F1 plants of reciprocal crosses between resistant lines and CDC Teal, 20 g ai ha^−1) is recorded as “survived”. The plant injury result in assay [2] (10× rate (200 g/ha), one gene plants (BW755, FS4)) is reported as “all treated one gene plants were injured”; in assay [2] (10× rate (200 g/ha), two gene plants (Teal 15A)), “no two gene plants were injured”; in assay [2] (30× rate (600 g/ha), homozygous population of Teal15A), “all plants of the homozygous population of Teal15A sustained injury”; in assay [2] (30× rate (600 g/ha), still-segregating selfed population of Teal15A crossed with Teal11A), “over half of plants sustained no injury”.

Values taken from patent US9695438B2, “Wheat plants having increased resistance to imidazolinone herbicides” (University of Saskatchewan, priority 2001, dated 2017).
